Results: US20070098761A1, “Processed fat composition for preventing/ameliorating lifestyle-related diseases” (priority 2003, published 2007)
Read-outs that look alike come from different tables or passages of the source. Blank lines part the entries; values can stand above or below the molecule they belong to.

Assay: Shelf stability test (accelerating test at 80° C.)
Assay type: physicochemical
Protocol: A shelf stability test of glabrene, glabridin, glabrol and 4′-O-methylglabridin in the above MCT solution was carried out as an accelerating test at 80° C. The MCT solution was kept at 80° C. in a water bath, and the contents of glabrene, glabridin, glabrol and 4′-O-methylglabridin were determined after storage for 1, 3 and 5 hours respectively. The shelf stability was expressed in terms of the ratio of the content after storage to the content before storage, assuming that the content of each compound before storage was 100%.
A shelf stability test of the hydrophobic licorice extract in Comparative Example 1 was carried out in an analogous manner.
A shelf stability test of the ethanol solution in Comparative Example 2 was carried out in an analogous manner.

- Shelf stability (ratio of content after storage to content before storage) (0 h): 100%
SMILES: CC1(C)C=Cc2c(O)ccc(C3=Cc4ccc(O)cc4OC3)c2O1 [Compound 1, glabrene]

- Shelf stability (ratio of content after storage to content before storage) (Ethanol solution (Comparative Example 2), 80° C., after 1 hour): 96%
- Shelf stability (ratio of content after storage to content before storage) (Ethanol solution (Comparative Example 2), 80° C., after 3 hour): 94%
- Shelf stability (ratio of content after storage to content before storage) (Ethanol solution (Comparative Example 2), 80° C., after 5 hour): 93%
- Shelf stability (ratio of content after storage to content before storage) (Ethanol solution (Comparative Example 2), 80° C., at the time of start (set to 100%)): 100%
- Shelf stability (ratio of content after storage to content before storage) (Hydrophobic licorice extract (Comparative Example 1), 80° C., after 1 hour): 91%
- Shelf stability (ratio of content after storage to content before storage) (Hydrophobic licorice extract (Comparative Example 1), 80° C., after 3 hours): 88%
- Shelf stability (ratio of content after storage to content before storage) (Hydrophobic licorice extract (Comparative Example 1), 80° C., after 5 hours): 86%
- Shelf stability (ratio of content after storage to content before storage) (Hydrophobic licorice extract (Comparative Example 1), 80° C., at the time of start (set to 100%)): 100%
- Shelf stability (ratio of content after storage to content before storage) (MCT solution (Example 1), 80° C., after 1 hour): 100%
- Shelf stability (ratio of content after storage to content before storage) (MCT solution (Example 1), 80° C., after 3 hours): 101%
- Shelf stability (ratio of content after storage to content before storage) (MCT solution (Example 1), 80° C., after 5 hours): 97%
- Shelf stability (ratio of content after storage to content before storage) (MCT solution (Example 1), 80° C., at the time of start (set to 100%)): 100%
- Stability during storage (in words) (in the ethanol solution, 80° C.): unstable
- Stability during storage (in words) (in the hydrophobic licorice extract, 80° C.): unstable
SMILES: CC1(C)C=Cc2c(ccc3c2OC[C@@H](c2ccc(O)cc2O)C3)O1 [Compound 2, glabridin]

- Stability during storage (in words): stable
- Shelf stability (ratio of content after storage to content before storage) (0 h): 100%
SMILES: CC(C)=CCc1cc([C@@H]2CC(=O)c3ccc(O)c(CC=C(C)C)c3O2)ccc1O [Compound 3, glabrol]

- Shelf stability (ratio of content after storage to content before storage): 100%
- Stability during storage (in words): stable
SMILES: COc1ccc([C@@H]2COc3c(ccc4c3C=CC(C)(C)O4)C2)c(O)c1 [Compound 4, 4′-O-methylglabridin]
